Assay [1] relates to HL60 cells. Nature of the assay: In vitro internalization of 225Ac-HuM195-DOTA. The class given is cell-based, human. The following applies: 37° C., in 5 hours. The method, then:
The internalizing ability of the purified ^225Ac-HuM195-DOTA was tested with HL60 cells. The cells were washed twice with complete media and then incubated for 20 min on ice in complete media containing 2% rabbit serum. The cells were washed twice with ice cold complete media and then resuspended in 5 ml of complete media at a density of 5×10^6 cells/ml. After placing the cell suspension on ice purified ^225Ac-HuM195-DOTA (15 ng) was added. After mixing a sample of the sample of the cell suspension as taken and the rest of the cell suspension was placed into a 37° C. incubator. At various time points samples of the cell suspensions were taken. The samples were centrifuged, the supernatant removed and the cells washed twice with ice cold PBS. Stripping buffer (50 mM glycine, 150 mM NaCl, pH 2.8) was added to the cells and allowed to incubate for 10 min at room temperature. The cells were centrifuged and the supernatant drawn off and saved for counting. The cell pellet was washed once with PBS and both the cell pellet and wash were saved for counting.

In assay [2] the test system is Daudi lymphoma cells. Nature of the assay: In vivo efficacy against disseminated Daudi lymphoma. Also noted: species or system mouse. Particulars: irrelevant control, day 1. The method, then:
Daudi lymphoma cells are disseminated into 8-12 week old female Scid mice via an intravenous (i.v.) injection of 5E6 Daudi tumor cells in the tail vein; mice experience a 100% tumor take rate in the model (20). In this lymphoma therapy experiment mice are treated 1 day post-tumor dissemination via intravenous injection. Animals are monitored for signs of illness and hind leg paralysis or inability to breathe or ambulate at which time they are sacrificed.
In the first experiment with this disseminated model, mice are treated 1 day post-tumor dissemination with a single dose of labeled specific [225Ac]B4 at three different dose levels, irrelevant control [225Ac]HuM195 at two dose levels, or a mass of unlabeled B4 matching the antibody mass dose administered in the highest dose level radiolabeled groups. Control groups receiving the irrelevant [225Ac]HuM195 have median survival times from xenograft of 43 days and 36 days. Mice receiving 0.003 mg unlabeled B4 per mouse have a median survival time of 57 days from xenograft. The mice receiving a single injection of [225Ac]B4 show dose-related increases in median survival times from xenograft to 165, 137 and 99 days, respectively. The dose response of [225Ac]B4 is significant with P=0.05. […]

As for 225Ac-HuM195-DOTA, in assay [1], the activity internalized was 50%. For the same substance, the “median survival time from xenograft” value was determined as 43 days in assay [2] (first-named of two dose levels (5550 Bq per FIG. 8A, order assumed)) and 36 days in assay [2] (second-named of two dose levels (1850 Bq per FIG. 8A, order assumed)).

Values taken from patent publication US6683162B2, “Targeted alpha particle therapy using actinium-255 conjugates” (Sloan Kettering Institute of Cancer Research, priority 2000, dated 2004).
